Among the data in patent US20120220577A1, “GLYCINE B ANTAGONISTS” (Merz Pharma GmbH & Co KgaA, priority 2009, published 2012) are IC50 values, retold here.

Assay [1] concerns the target T1, glycine binding pocket of the NMDA receptor (Rattus norvegicus, UniProt P35439).
T1 construct: For isolation of the cell membranes, the cortices are homogenized; from tissue; host or cells: rat cerebral cortex membranes (male Sprague-Dawley)
As to the kind of experiment: [3H]MDL-105,519 displacement studies (rat cortical membranes). The following applies: displacement of 2 nM [3H]-MDL-105,519, rat cortical membranes; read-out: NMDA-MDL 105519-r-CTX - IC50.

For assay [2], the target named is NMDA receptor glycine B site (Rattus norvegicus, UniProt P35439). Description: Whole cell patch-clamp recordings, rat hippocampal neurons (NMDA/D-Serine currents). As to conditions: NMDA 200 μM + D-Serine 1 μM, -70 mV, read-out: NMDA-PC-r-HIC-NAM - IC50. It counts as cell-based. As for the experimental part: Antagonistic potencies of the test compounds are functionally evaluated using electrophysiological whole cell patch-clamp recordings and/or fluorometric intracellular Ca^2+-imaging (FLIPR) screens.
Cell preparation is performed as described by Parsons, et al. (Neuropharmacology, 1998, 37(6), 719-727). The female Sprague-Dawley rat is anaesthetised by placing in a saturated CO2-euthanasia chamber under further quiet CO2-influx. Under these conditions the rat loses consciousness after a few seconds and is then sacrificed by cervical dislocation. After opening the abdominal cavity, embryos (E20) are removed and stored in ice cold Ca^2+- and Mg^2+-free Hank's Buffered Salt Solution (pH 7.3), containing 4 g/l glucose (HBSS-CMF). Hippocampi are then isolated from the brains of at least 8 embryos after decapitation, transferred into ice cold HBSS-CMF and washed 3 to 4 times.
Hippocampi are pre-incubated for 8 min with a 0.66% trypsin (Sigma-Aldrich) and 0.1% (20 U/ml) DNAase solution (Sigma-Aldrich) in Ca^2+-free Phosphate Buffered Saline (PBS-CF) and washed 3 times with HBSS-CMF. Cells are then mechanically dissociated by trituration in a PBS-CF solution containing 0.05% (10 U/ml) DNAase and 0.3% of the trypsin inhibitor ovomucoid (all from Sigma-Aldrich). The cells are then centrifuged at 180×g for 10 minutes, and the cell pellet re-suspended in basal Minimum essential medium (MEM, Invitrogen, Karlsruhe, Germany), again carefully triturated to ensure maximal dissociation and finally plated in the flexiPERM inserts (Thermo Fisher Scientific, Langenselbold, Germany) at a density of 15×10^3 cells/cm^2 (0.5 ml/insert) onto poly-DL-ornithine (Sigma) and mouse laminin (Invitrogen) pre-coated plastic petri dishes. After 1 hour the cells become attached to the bottom of the dish and the inserts may be removed. The cells are then nourished with 2 ml MEM supplemented with 5% foetal calf serum (FCS) and 5% horse serum and incubated at 37° C. with 95% air and 5% CO2 at 95% humidity. After 4 days in vitro (DIV) further glial mitosis is inhibited by adding 10 μl of AraC (5 μM endconcentration). The medium is completely exchanged after an additional 2 DIV and again, but only partly (50%), after 8 DIV. The cells are used for electrophysiological recordings after 11-15 DIV.
Cells are visualised using an inverted microscope and selected for patching based upon their position and morphology. Voltage clamp recordings are made in the whole cell configuration of the patch clamp technique at a holding potential of −70 mV with the aid of an EPC-10 amplifier in combination with pipette manipulator. Patch clamp pipettes are pulled from borosilicate glass using a horizontal puller (P-97 Puller, Sutter Instruments, USA) and, when filled with intracellular solution, have resistances of 1-4 MΩ.
Solutions are delivered via a home-made gravity driven very fast perfusion system (<10 ms) including valves to switch flow on and off in combination with a stepper motor-driven double-barrelled theta glass application pipette in order to expose cells to either agonist-free or agonist-containing solutions in presence or absence of antagonist.
The intracellular solution used consists of: 120 mM CsCl, 10 mM EGTA, 1 mM MgCl2, 200 μM CaCl2, 10 mM glucose and 22 mM tetraethyl ammonium chloride (TEA-CL). The corresponding extracellular bath solution contains: 140 mM NaCl, 3 mM KCl, 10 mM glucose, 10 mM HEPES, 1.5 mM CaCl2 and 4.5 mM sucrose (all from Sigma-Aldrich) pH 7.3, and is supplemented with 0.3 μM tetrodotoxin (TTX, Tocris, Bristol, U.K.) to block voltage-activated sodium channels and 0.25 μM bicuculline (Sigma-Aldrich) to block GABAA receptors. […]

For the molecule `O=C(COc1cc(C(=O)O)cc2cc(Cl)cc(Cl)c12)Nc1ccc(O)cc1` [Example 8, 5,7-Dichloro-4-[(4-hydroxyphenylcarbamoyl)-methoxy]-naphthalene-2-carboxylic acid], the 50% inhibitory concentration (IC50) was 1850 nM in assay [1] and 287 nM in assay [2].
For `O=C(COc1cc(C(=O)O)cc2cc(Cl)cc(Cl)c12)Nc1cccc(OCC(=O)N2CCOCC2)c1` [Example 47, 5,7-Dichloro-4-{[3-(2-morpholin-4-yl-2-oxo-ethoxy)-phenylcarbamoyl]-methoxy}-naphthalene-2-carboxylic acid], in that order: 218 nM and 87 nM.
